Results published in PMC11435135, “Diagnosis of Prostate Cancer with a Neurotensin–Bombesin Radioligand Combination—First Preclinical Results” (Pharmaceutics, 2024).

How the values were obtained:
[1] = system: GRPR; conditions: cited from earlier work
Source text: (§1) We decided to investigate the potential advantages–shortcomings of the “radioligand cocktail” approach in human prostate cancer, prompted by the reported co-expression of NTS1R and GRPR in this frequently occurring cancer type. For such a purpose, we opted for the PC-3 cell line to conduct our cell uptake studies as well as to induce subcutaneous xenografts in mice, as it co-expresses the two targets of interest. Based on our previous work on NTS1R- and GRPR-directed radioligands, we selected a cocktail consisting of [^99mTc]Tc-DT11 (NTS1R-specific) [[47] ...

[2] = system: NTS1R; conditions: cited from earlier work
Source text: as §1

[3] = system: PC-3 cells; test: Uptake/internalization of [99mTc]Tc-DT11 in PC-3 cells; format: cell-based, human; conditions: radioligand alone, 1 h at 37 °C
Procedure: The day preceding the experiment, PC-3 cells were transferred in 6-well plates (1 × 10^6 cells in 3 mL culture medium per well), and the plates were positioned in the incubator. On the day of the experiment, the plates were placed on ice and the supernatant was aspirated and discarded. The cells were rinsed with 2 × 2 mL ice-cold internalization medium (IM, RPMI-1640 with 1% FBS) and the plates were placed on the bench. Warm IM (1.2 mL at 37 °C) was added to the wells, followed by either warm IM (150 µL—3 upper wells, total series) or excess NT in IM (150 µL to a final concentration of 1 µM—3 lower wells, non-specific series). In a last step, [^99mTc]Tc-DT11 in phosphate-buffered saline with 0.5% bovine serum albumin (PBS-BSA) was added to all plates (250 fmol peptide, ≈100,000 cpm). Cells were incubated for 1 h at 37 °C in an Incubator-Orbital Shaker unit (MPM Instr. SrI, Bernareggio, Milan, Italy). Incubation was interrupted by placing the plates on ice and collecting the supernatants in separate plastic tubes. The cells were rinsed with ice-cold PBS-BSA (1 mL) and the liquid was collected and combined with the respective supernatant tubes. The plates were placed on the bench and incubated 2 × 5 min with acid buffer (2 × 600 µL, 50 mM Gly in 0.1 M NaCl, pH 2.8). Supernatants were again collected and combined in individual tubes (membrane-bound fractions). Cells were rinsed with ice-cold PBS-BSA (1 mL), which was aspirated and discarded. Finally, the cells were treated with 2 × 600 µL 1 M NaOH, detached, collected and combined in separate tubes (internalized fractions). The radioactivity of all tubes was measured in the gamma counter. The percentage of specific membrane-bound and internalized fractions (their sum corresponding to specific cell-uptake) vs. total radioactivity added per well were calculated by subtracting non-specific values from totals. Results were expressed as average values ± standard deviation (sd) from 3 independent experiments performed in triplicate.

[4] = system: PC-3 xenografts; design: species or system mice; conditions: mouse, in vivo
Procedure: The biodistribution of [^99mTc]Tc-DT11 was studied in male severe combined immunodeficiency (SCID) mice (11 mice 6-weeks of age on arrival date, 18 ± 4 g, NCSR “Demokritos” Animal House, Athens, Greece) bearing PC-3 xenografts in their flanks. Tumor induction was achieved by subcutaneous injection of a PC-3 cell suspension (12 × 10^6 cells in 150 µL PBS) in their flanks. The animals were kept under aseptic conditions and, 3 weeks later, developed palpable masses at the inoculation sites (150 ± 50 mg); biodistribution was then conducted. On the day of the experiment, animals were divided into three groups: controls (n = 4), Entresto® (n = 4) and block (n = 3). All mice were injected in the tail vein with a bolus of [^99mTc]Tc-DT11 (100 µL, 185 kBq, 5 pmol total peptide in vehicle). […] Blood was collected from the heart, and tumors, organs and tissue samples of interest were excised and weighted, and their radioactivity content was measured together with the proper standards of the injected activity in the gamma counter. The percent of injected activity per gram (%IA/g) was calculated, and the results were provided as mean %IA/g values ± sd for each group. […]

[5] = NTS1R-specific, % of added activity, mean ± sd, 3 experiments in triplicate

Substance: N4-PEG2-DPhe-Gln-Trp-Ala-Val-Gly-His-Leu-NHEt [[^99mTc]Tc-DB7, Tc-99m labeled DB7, GRPR-specific bombesin-based radioligand (GRPR antagonist)]
- affinity to the respective receptor [1]: sub-nanomolar

Substance: N4-Lys(MPBA-PEG4)-Arg-Arg-Pro-Tyr-Ile-Leu-OH [[^99mTc]Tc-DT11, Tc-99m labeled DT11, NTS1R-specific neurotensin-based radioligand]
- affinity to the respective receptor [2]: sub-nanomolar
- internalized fraction as share of cell-associated activity [3]: ≈ 87%
- membrane-bound fraction as share of cell-associated activity [3]: ≈ 13%
- internalized fraction [3, 5]: 1.22 ± 0.26%
- membrane-bound fraction [3, 5]: 0.18 ± 0.12%
- tumor-to-kidney ratio [4]: ≈ 1.5
